Results as given in patent US8541362B2, “Cyclopropyl compounds and compositions for delivering active agents” (Emisphere Technologies, Inc., priority 2005, dated 2013).
Values belong to the compound of their own block, whether it stands above or below them.

Assays:
Assay type in all cases: in vivo, rat
[1] = Oral delivery of insulin in rats with delivery agent: serum insulin by ELISA; details: procedure of Example 2 (0.25 mg/kg insulin, 100 mg/kg delivery agent)
Experimental: (§1) General anesthesia was induced in Sprague Dawley rats (250-350 gram) with 5% isoflurane in an anesthetic chamber, and the anesthesia was maintained with 2% isoflurane in 98% oxygen carrier gas up to the end of the study.
(§2) Jugular vein cannulation was carried out first for blood sampling by creating an incision just above the right clavicle. Using blunt forceps, the connective and adipose tissue were pushed aside and the jugular vein was exposed. The distal end of the exposed jugular vein was ligated, while its proximal end was strained to occlude the blood flow momentarily. A portion of the vessel near to the distal end was nipped, and the silicon catheter was inserted toward the proximal direction. After the catheter was tightened with a silk suture, the skin wound was closed with surgical staples.
(§3) The jejunum was prepared as follows: the proximal jejunum section was identified first. Plasma insulin and blood glucose levels were determined from a blood sample from the […] and used as a baseline.
(§4) The animal's abdominal cavity was opened. After the jejunum was identified, the part of the proximal segment was nipped with surgical scissors. A dosing tubing connected to a 1 ml syringe was introduced into the incised jejunum and carefully dosed. After dosing, the dosing tubing was removed. Then, a 2-cm polyethylene tubing was inserted into the jejunum so that the cut opening was located in the middle of the tubing. Both ends of the tube were tied with suture with the jejunum tissue to secure the jejunum, and, after the wound dried, a vet bond was applied over the top of the wound with a cotton swab. A 2 cm bridge tubing was placed to maintain the intestinal fluid flow intact.
(§5) After dosing and installation of the bridge, the exposed intestines were gently pushed back into place. The exposed wounds were covered with a wet gauge, and then with a paraffin film to prevent dehydration. Thereafter, blood samplings were performed at scheduled time-points.
(§6) Dose: 0.25 mg/kg Insulin, 100 mg/kg Delivery Agent, Concentration: 0.25 mg/ml, 100 mg/ml. Dose volume: 1 ml/kg.
(§7) Human recombinant insulin (ICN Biomedicals, Aurora, Ohio) was dissolved in deionized water (ph˜6.5) to obtain stock insulin solutions having a concentration of 15 mg/ml. 7-cyclopropylheptanoic acid was dissolved in deionized water to obtain a 200 mg/ml delivery agent solution. The free acid form of the delivery agent was converted to the sodium salt by adding one equivalent of sodium hydroxide. Solutions were vortexed, sonicated, and heated. If necessary, additional sodium hydroxide was added in μl quantities to achieve uniform solubility in the delivery agent solutions. Solutions were adjusted to a pH of 7.5-8.5 by the addition of either hydrochloric acid or sodium hydroxide, as appropriate. The insulin stock solution was then added to the delivery agent solutions to obtain an administration solution ultimately having an insulin concentration of 0.25 mg/ml. After solubilization and drug addition, administration solutions were brought to a final volume by the addition of deionized water.
The insulin assay was performed as follows. Concentrations of insulin were quantified in rat serum using a sandwich-type ELISA kit (Diagnostic Systems Laboratories, Inc., Webster, Tex.). Samples were collected into capiject tubes containing a clot activator (red top, serum separator tubes). Samples were allowed to clot for ˜20 minutes at 4° C. […]

[2] = tested on: Sprague Dawley rats; assay: Oral delivery of insulin in rats with delivery agent: change in blood glucose; details: delivery agent: insulin = 200 mg: 0.5 mg per Kg
[3] = tested on: Sprague Dawley rats; assay: as above; details: 0.25 mg/kg insulin + 100 mg/kg delivery agent
Experimental: as §1, §2, §3, §4, §5, §6, §7

Structure (SMILES): O=C(O)CCCCCCC(=O)NCC1CC1 [Compound 13]
% of Glucose Reduction from Control ([2]; time 0 min): −0.862%
% of Glucose Reduction from Control ([2]; time 15 min): −10.523%
% of Glucose Reduction from Control ([2]; time 30 min): −20.866%
% of Glucose Reduction from Control ([2]; time 45 min): −28.011%
% of Glucose Reduction from Control ([2]; time 60 min): −32.952%

Structure (SMILES): O=C(O)CCCCCCCCC(=O)NCC1CC1 [Compound 15]
Max Mean Cmax [uU/mL] [1]: 71.2 ± 33.7 uU/mL

Structure (SMILES): COC(=O)CCCCCCC(=O)NCC1CC1 [Compound 14]
Max Mean Cmax [uU/mL] [1]: 71.3 ± 35.2 uU/mL

Structure (SMILES): O=C(O)CCCCCCC1CC1 [Compound 1, 7-cyclopropylheptanoic acid]
Decrease of blood glucose (%) Average Value ([3]; time 0 min): 0%
Decrease of blood glucose (%) Average Value ([3]; time 5 min): −1.5%
Decrease of blood glucose (%) Average Value ([3]; time 10 min): −15.3%
Decrease of blood glucose (%) Average Value ([3]; time 20 min): −32.9%
Decrease of blood glucose (%) Average Value ([3]; time 40 min): −38.7%
Decrease of blood glucose (%) Average Value ([3]; time 60 min): −36.6%
Decrease of blood glucose (%) Average Value ([3]; time 90 min): −21.8%

The remaining lines, values ahead:

Max Mean Cmax [uU/mL] [1]: 142.7 ± 62.7 uU/mL
Structure (SMILES): O=C(O)CCCCCCCCC(=O)NC1CC1 [Compound 9, 10-(cyclopropylamino)-10-oxodecanoic acid]

Max Mean Cmax [uU/mL] [1]: 340.4 ± 191.3 uU/mL
Structure (SMILES): COC(=O)CCCCCCCCC(=O)NC1CC1 [Compound 12]

Max Mean Cmax [uU/mL] [1]: 84.93 ± 57.8 uU/mL
Structure (SMILES): COC(=O)CCCCCCC(=O)NC1CC1 [Compound 11]
